Patent US10988478B1, “Pyrazolo[1,5a]pyrimidine derivatives as IRAK4 modulators” (Genentech, Inc., priority 2015, dated 2021)
pKi: −log10 of the molar value.

Target: human IRAK4 (Homo sapiens (Human), UniProt Q9NWZ3)
Test: IRAK4 kinase inhibition, Transcreener fluorescence polarization ADP assay
Type: biochemical
Conditions: recombinant full-length His6-IRAK4; 125 uM ATP; 90 min; Ki computed using ATP Km 642 uM
Protocol: Compounds were assayed for inhibition of human IRAK4 and IRAK1 catalytic activity using recombinant enzyme produced from insect cells. Full-length IRAK4 protein, carrying an N-terminal His6-Tag, was obtained from Life Technologies (Carlsbad, Calif., USA). The IRAK1 construct was produced internally and was comprised of IRAK1 residues Arg194 to Ser712, preceded by an NH2-terminal His6 tag and the coding sequence for glutathione-S-transferase.

human IRAK4, sequence (Q9NWZ3 whole entry): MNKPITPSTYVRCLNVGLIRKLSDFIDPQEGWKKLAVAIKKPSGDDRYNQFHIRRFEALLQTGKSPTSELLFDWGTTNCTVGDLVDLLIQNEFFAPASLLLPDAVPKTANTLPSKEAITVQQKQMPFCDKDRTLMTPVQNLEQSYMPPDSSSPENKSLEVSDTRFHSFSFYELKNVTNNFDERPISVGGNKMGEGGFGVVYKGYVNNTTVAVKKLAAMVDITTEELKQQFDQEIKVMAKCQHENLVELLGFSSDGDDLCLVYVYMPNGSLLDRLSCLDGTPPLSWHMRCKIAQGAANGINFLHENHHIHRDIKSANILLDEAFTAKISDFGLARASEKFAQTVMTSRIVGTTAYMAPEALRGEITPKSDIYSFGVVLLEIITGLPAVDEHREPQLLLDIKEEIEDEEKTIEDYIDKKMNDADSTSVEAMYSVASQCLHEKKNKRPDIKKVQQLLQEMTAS

C[C@]1(O)CCCN(c2cc3c(cc2NC(=O)c2cnn4cccnc24)C[C@@](C)(CO)O3)CC1 [Example 332, N-((S)-6-((S)-4-hydroxy-4-methylazepan-1-yl)-2-(hydroxymethyl)-2-methyl-2,3-dihydrobenzofuran-5-yl)pyrazolo[1,5-a]pyrimidine-3-carboxamide]
pKi: 8.22

C[C@]1(CO)Cc2cc(NC(=O)c3cnn4cccnc34)c(N3CCC(C#N)CC3)cc2O1 [Example 335, (R)-N-(6-(4-cyanopiperidin-1-yl)-2-(hydroxymethyl)-2-methyl-2,3-dihydrobenzofuran-5-yl)pyrazolo[1,5-a]pyrimidine-3-carboxamide]
pKi: 8.70

C[C@@]1(CO)Cc2cc(NC(=O)c3cnn4cccnc34)c(N3CCC(C#N)CC3)cc2O1 [Example 336, (S)-N-(6-(4-cyanopiperidin-1-yl)-2-(hydroxymethyl)-2-methyl-2,3-dihydrobenzofuran-5-yl)pyrazolo[1,5-a]pyrimidine-3-carboxamide]
pKi: 8.52

C[C@]1(CO)Cc2cc(NC(=O)c3cnn4cccnc34)c(N3CCC(C4(O)CC4)CC3)cc2O1 [Example 341, N-[(2R)-6-[4-(1-hydroxycyclopropyl)-1-piperidyl]-2-(hydroxymethyl)-2-methyl-3H-benzofuran-5-yl]pyrazolo[1,5-a]pyrimidine-3-carboxamide]
pKi: 8.40

C[C@@]1(CO)Cc2cc(NC(=O)c3cnn4cccnc34)c(N3CCC(C4(O)CC4)CC3)cc2O1 [Example 342, N-[(2S)-6-[4-(1-hydroxycyclopropyl)-1-piperidyl]-2-(hydroxymethyl)-2-methyl-3H-benzofuran-5-yl]pyrazolo[1,5-a]pyrimidine-3-carboxamide]
pKi: 8.41

CCC(=O)C1CCN(c2cc3c(cc2NC(=O)c2cnn4cccnc24)CC(C)(CO)O3)CC1 (centres unmarked) [Example 343, N-[2-(Hydroxymethyl)-2-methyl-6-(4-propanoyl-1-piperidyl)-3H-benzofuran-5-yl]pyrazolo[1,5-a]pyrimidine-3-carboxamide]
pKi: 8.30

C[C@]1(CO)Cc2cc(NC(=O)c3cnn4cccnc34)c(N3C[C@@H]4[C@H](C3)[C@@H]4C(N)=O)cc2O1 [Example 348, N-((R)-6-((1R,5S,6S)-6-carbamoyl-3-azabicyclo[3.1.0]hexan-3-yl)-2-(hydroxymethyl)-2-methyl-2,3-dihydrobenzofuran-5-yl)pyrazolo[1,5-a]pyrimidine-3-carboxamide]
pKi: 6.05

C[C@@]1(CO)Cc2cc(NC(=O)c3cnn4cccnc34)c(N3C[C@@H]4[C@H](C3)[C@@H]4C(N)=O)cc2O1 [Example 349, N-((S)-6-((1R,5S,6R)-6-carbamoyl-3-azabicyclo[3.1.0]hexan-3-yl)-2-(hydroxymethyl)-2-methyl-2,3-dihydrobenzofuran-5-yl)pyrazolo[1,5-a]pyrimidine-3-carboxamide]
pKi: 5.96

CC1(CO)Cc2cc(NC(=O)c3cnn4cccnc34)c(N3CCC(C(O)C(F)F)CC3)cc2O1 (centres unmarked) [Example 352, N-(6-(4-(2,2-Difluoro-1-hydroxyethyl)piperidin-1-yl)-2-(hydroxymethyl)-2-methyl-2,3-dihydrobenzofuran-5-yl)pyrazolo[1,5-a]pyrimidine-3-carboxamide]
pKi: 8.70

CC(C)(O)[C@]1(C)Cc2cc(NC(=O)c3cnn4cccnc34)c(N3CCC(CO)CC3)cc2O1 [Example 354, (S)—N-(6-(4-(Hydroxymethyl)piperidin-1-yl)-2-(2-hydroxypropan-2-yl)-2-methyl-2,3-dihydrobenzofuran-5-yl)pyrazolo[1,5-a]pyrimidine-3-carboxamide]
pKi: 8.52

CC(C)(O)[C@@]1(C)Cc2cc(NC(=O)c3cnn4cccnc34)c(N3CCC(CO)CC3)cc2O1 [Example 355, (R)—N-(6-(4-(Hydroxymethyl)piperidin-1-yl)-2-(2-hydroxypropan-2-yl)-2-methyl-2,3-dihydrobenzofuran-5-yl)pyrazolo[1,5-a]pyrimidine-3-carboxamide]
pKi: 8.22

CC(C)(O)C1(C)Cc2cc(NC(=O)c3cnn4cccnc34)c(N3CCN(CC(N)=O)CC3)cc2O1 (centres unmarked) [Example 356, N-[6-[4-(2-amino-2-oxo-ethyl)piperazin-1-yl]-2-(1-hydroxy-1-methyl-ethyl)-2-methyl-3H-benzofuran-5-yl]pyrazolo[1,5-a]pyrimidine-3-carboxamide]
pKi: 8.40

CC1(C)Cc2cc(NC(=O)c3cnn4cccnc34)c(C3CCN(CCO)CC3)cc2O1 [Example 357, N-(6-(1-(2-Hydroxyethyl)piperidin-4-yl)-2,2-dimethyl-2,3-dihydrobenzofuran-5-yl)pyrazolo[1,5-a]pyrimidine-3-carboxamide]
pKi: 6.39

CC1(C)Oc2cc(NC(=O)c3cnn4cccnc34)c(N3CCOCC3)cc2C1O (centres unmarked) [Example 358, N-(3-Hydroxy-2,2-dimethyl-5-morpholino-2,3-dihydrobenzofuran-6-yl)pyrazolo[1,5-a]pyrimidine-3-carboxamide]
pKi: 6.29

CC1(C)Oc2cc(NC(=O)c3cnn4cccnc34)c(N3CCOCC3)cc2C1=O [Example 359, N-(2,2-dimethyl-5-morpholino-3-oxo-2,3-dihydrobenzofuran-6-yl)pyrazolo[1,5-a]pyrimidine-3-carboxamide]
pKi: 6.59

CC(C)(O)[C@@]1(C)Cc2cc(NC(=O)c3cnn4cccnc34)c(N3CCN(CC(F)F)CC3)cc2O1 [Example 360, (R)—N-(6-(4-(2,2-Difluoroethyl)piperazin-1-yl)-2-(2-hydroxypropan-2-yl)-2-methyl-2,3-dihydrobenzofuran-5-yl)pyrazolo[1,5-a]pyrimidine-3-carboxamide]
pKi: 8.20

CC(C)(O)[C@]1(C)Cc2cc(NC(=O)c3cnn4cccnc34)c(N3CCN(CC(F)F)CC3)cc2O1 [Example 361, (S)—N-(6-(4-(2,2-Difluoroethyl)piperazin-1-yl)-2-(2-hydroxypropan-2-yl)-2-methyl-2,3-dihydrobenzofuran-5-yl)pyrazolo[1,5-a]pyrimidine-3-carboxamide]
pKi: 8.04

CC1(COC(F)F)Cc2cc(NC(=O)c3cnn4cccnc34)c(N3CCN(CC(F)F)CC3)cc2O1 (centres unmarked) [Example 362, N-(6-(4-(2,2-difluoroethyl)piperazin-1-yl)-2-((difluoromethoxy)methyl)-2-methyl-2,3-dihydrobenzofuran-5-yl)pyrazolo[1,5-a]pyrimidine-3-carboxamide]
pKi: 8.17

CC(C)(O)C1(C)Cc2cc(NC(=O)c3cnn4cccnc34)c(N3CCC(CO)CC3)cc2O1 (centres unmarked) [Example 363, N-(6-(4-(hydroxymethyl)piperidin-1-yl)-2-(2-hydroxypropan-2-yl)-2-methyl-2,3-dihydrobenzofuran-5-yl)pyrazolo[1,5-a]pyrimidine-3-carboxamide]
pKi: 8.28

CC1(C(F)F)Cc2cc(NC(=O)c3cnn4cccnc34)c(N3CCN(CC(F)F)CC3)cc2O1 (centres unmarked) [Example 364, N-(6-(4-(2,2-Difluoroethyl)piperazin-1-yl)-2-(difluoromethyl)-2-methyl-2,3-dihydrobenzofuran-5-yl)pyrazolo[1,5-a]pyrimidine-3-carboxamide]
pKi: 8.43

C[C@]1(CC(F)F)Cc2cc(NC(=O)c3cnn4cccnc34)c(N3CCOCC3)cc2O1 [Example 367, N-[(2R)-2-(2,2-difluoroethyl)-2-methyl-6-morpholino-3H-benzofuran-5-yl]pyrazolo[1,5-a]pyrimidine-3-carboxamide]
pKi: 8.24

O=C(Nc1cc2c(cc1N1CCOCC1)OC1(CCN(CCO)CC1)C2)c1cnn2cccnc12 [Example 369, N-[1′-(2-Hydroxyethyl)-6-morpholino-spiro[3H-benzofuran-2,4′-piperidine]-5-yl]pyrazolo[1,5-a]pyrimidine-3-carboxamide]
pKi: 8.17

O=C(Nc1cc2c(cc1N1CCOCC1)OC1(CCN(CC(F)F)CC1)C2)c1cnn2cccnc12 [Example 370, N-[1′-(2,2-difluoroethyl)-6-morpholino-spiro[3H-benzofuran-2,4′-piperidine]-5-yl]pyrazolo[1,5-a]pyrimidine-3-carboxamide]
pKi: 8.24

CN1CCC2(CC1)Cc1cc(NC(=O)c3cnn4cccnc34)c(N3CCC(CO)CC3)cc1O2 [Example 371, N-(6-(4-(Hydroxymethyl)piperidin-1-yl)-1′-methyl-3H-spiro[benzofuran-2,4′-piperidin]-5-yl)pyrazolo[1,5-a]pyrimidine-3-carboxamide]
pKi: 8.85

CC(C)N1CCC2(CC1)Cc1cc(NC(=O)c3cnn4cccnc34)c(N3CCOCC3)cc1O2 [Example 372, N-(1′-isopropyl-6-morpholino-spiro[3H-benzofuran-2,4′-piperidine]-5-yl)pyrazolo[1,5-a]pyrimidine-3-carboxamide]
pKi: 7.89

CN1CCC2(CC1)Cc1cc(NC(=O)c3cnn4cccnc34)c(N3CCN(CC(N)=O)CC3)cc1O2 [Example 373, N-(6-(4-(2-Amino-2-oxoethyl)piperazin-1-yl)-1′-methyl-3H-spiro[benzofuran-2,4′-piperidin]-5-yl)pyrazolo[1,5-a]pyrimidine-3-carboxamide]
pKi: 8.77

CC(=O)N1CCC2(CC1)Cc1cc(NC(=O)c3cnn4cccnc34)c(N3CCN(CC(N)=O)CC3)cc1O2 [Example 374, N-(1′-Acetyl-6-(4-(2-amino-2-oxoethyl)piperazin-1-yl)-3H-spiro[benzofuran-2,4′-piperidin]-5-yl)pyrazolo[1,5-a]pyrimidine-3-carboxamide]
pKi: 8.70

O=C(CN1CCN(c2cc3c(cc2NC(=O)c2cnn4cccnc24)CC2(CCNCC2)O3)CC1)NC1CC1 [Example 375, N-(6-(4-(2-(Cyclopropylamino)-2-oxoethyl)piperazin-1-yl)-3H-spiro[benzofuran-2,4′-piperidin]-5-yl)pyrazolo[1,5-a]pyrimidine-3-carboxamide]
pKi: 7.33

CN1CCC2(CC1)Cc1cc(NC(=O)c3cnn4cccnc34)c(N3CCN(CC(=O)NC4CC4)CC3)cc1O2 [Example 376, N-(6-(4-(2-(Cyclopropylamino)-2-oxoethyl)piperazin-1-yl)-1′-methyl-3H-spiro[benzofuran-2,4′-piperidin]-5-yl)pyrazolo[1,5-a]pyrimidine-3-carboxamide]
pKi: 7.34
